Results taken from publication PMC11502502 (Nature cancer, 2024).
Where “and” joins values, the source holds several entries; their conditions need not be identical. Equal entries are not always repeated.

Assays:
[1] = system: THP-1 (AML) xenografted mice; experiment: THP-1 AML xenograft efficacy; type: in vivo; parameters: anti-tumor efficacy in THP-1 (AML)-tumor bearing mice, individual measurements: unit not given here
[2] = system: MV-4–11 (AML)-xenografted mice; experiment: MV-4–11 AML xenograft efficacy and overall survival; type: in vivo; parameters: anti-tumor efficacy in MV-4-11 (AML)-tumor bearing mice in combination with SoC (tumor measurement per animal): unit not given here; conditions: for Overall survival of MV-4-11 (AML)-tumor bearing mice: BRD-810 50 mg/kg; for anti-tumor efficacy in MV-4-11 (AML)-tumor bearing mice in combination with SoC (tumor measurement per animal): individual animals, BRD-810 50mg/kg

SMILES | Overall survival of MV-4-11 (AML)-tumor bearing mice ([2]; day 0 post treatment start) | Overall survival of MV-4-11 (AML)-tumor bearing mice ([2]; day 1 post treatment start) | anti-tumor efficacy in MV-4-11 (AML)-tumor bearing mice in combination with SoC (tumor measurement per animal) ([2]; day 1 post treatment start) | Overall survival of MV-4-11 (AML)-tumor bearing mice ([2]; day 4 post treatment start) | anti-tumor efficacy in MV-4-11 (AML)-tumor bearing mice in combination with SoC (tumor measurement per animal) ([2]; day 4 post treatment start) | Overall survival of MV-4-11 (AML)-tumor bearing mice ([2]; day 8 post treatment start) | anti-tumor efficacy in MV-4-11 (AML)-tumor bearing mice in combination with SoC (tumor measurement per animal) ([2]; day 8 post treatment start) | Overall survival of MV-4-11 (AML)-tumor bearing mice ([2]; day 11 post treatment start) | anti-tumor efficacy in MV-4-11 (AML)-tumor bearing mice in combination with SoC (tumor measurement per animal) ([2]; day 11 post treatment start) | Overall survival of MV-4-11 (AML)-tumor bearing mice ([2]; day 15 post treatment start) | anti-tumor efficacy in MV-4-11 (AML)-tumor bearing mice in combination with SoC (tumor measurement per animal) ([2]; day 15 post treatment start) | Overall survival of MV-4-11 (AML)-tumor bearing mice ([2]; day 16 post treatment start) | anti-tumor efficacy in MV-4-11 (AML)-tumor bearing mice in combination with SoC (tumor measurement per animal) ([2]; day 16 post treatment start) | Overall survival of MV-4-11 (AML)-tumor bearing mice ([2]; day 17 post treatment start) | anti-tumor efficacy in MV-4-11 (AML)-tumor bearing mice in combination with SoC (tumor measurement per animal) ([2]; day 17 post treatment start) | Overall survival of MV-4-11 (AML)-tumor bearing mice ([2]; day 19 post treatment start) | Overall survival of MV-4-11 (AML)-tumor bearing mice ([2]; day 22 post treatment start) | Overall survival of MV-4-11 (AML)-tumor bearing mice ([2]; day 23 post treatment start) | Overall survival of MV-4-11 (AML)-tumor bearing mice ([2]; day 24 post treatment start) | Overall survival of MV-4-11 (AML)-tumor bearing mice ([2]; day 25 post treatment start) | further results
Nc1ccn([C@@H]2O[C@H](CO)[C@@H](O)[C@@H]2O)c(=O)n1 [cytarabine] | – | – | – | – | – | – | – | – | – | – | – | – | – | – | – | – | – | – | – | – | Antitumor efficacy, single agent ([1]; 45 mg kg^−1 subcutaneous, 3 days on, 4 days off): neither the Bcl-2 inhibitor venetoclax nor cytarabine showed appreciable single-agent efficacy; anti-tumor efficacy in THP-1 (AML)-tumor bearing mice, individual measurements ([1]; Cytarabine, day 1 post treatment start, animals #3001-#3010): 34.55 and 34.13 and 35.27 and 36.61 and 37.97 and 29.56 and 32.2 and 26.85 and 39.7 and 33.08; anti-tumor efficacy in THP-1 (AML)-tumor bearing mice, individual measurements ([1]; Cytarabine, day 3 post treatment start, animals #3001-#3010): 56.73 and 43.71 and 46.59 and 40.5 and 59.56 and 37.55 and 48.92 and 32.47 and 41.3 and 50.46; anti-tumor efficacy in THP-1 (AML)-tumor bearing mice, individual measurements ([1]; Cytarabine, day 6 post treatment start, animals #3001-#3010): 60.86 and 46.12 and 47.28 and 41.77 and 70.74 and 42.28 and 63.75 and 27.68 and 36.96 and 52.92; anti-tumor efficacy in THP-1 (AML)-tumor bearing mice, individual measurements ([1]; Cytarabine, day 8 post treatment start, animals #3001-#3010): 80.75 and 48.31 and 57.33 and 37.06 and 69.84 and 40.98 and 72.57 and 28.68 and 37.62 and 62.2; anti-tumor efficacy in THP-1 (AML)-tumor bearing mice, individual measurements ([1]; Cytarabine, day 10 post treatment start, animals #3001-#3010): 87.52 and 55.21 and 72.45 and 39.84 and 85.66 and 45.49 and 94.07 and 29.37 and 34.83 and 74.1; anti-tumor efficacy in THP-1 (AML)-tumor bearing mice, individual measurements ([1]; Cytarabine, day 13 post treatment start, animals #3001-#3010): 101.88 and 64.15 and 91.89 and 43.02 and 99.25 and 47.84 and 115.35 and 31.51 and 35.25 and 76.99
Nc1ncn([C@@H]2O[C@H](CO)[C@@H](O)[C@H]2O)c(=O)n1 [Azacytidine] | 100 | 100 | 37.66 and 36.25 and 41.68 and 30.5 and 27.18 and 34.36 and 33.31 and 32.32 and 36.01 and 43.7 | 100 | 54.55 and 56.25 and 56.22 and 40.13 and 37.55 and 44.2 and 45.16 and 42.15 and 44.53 and 58.86 | 100 | 65.52 and 65.46 and 68.31 and 53.62 and 40.92 and 60.68 and 62.4 and 50.31 and 59.65 and 77.78 | 100 | 89.02 and 75.69 and 101.46 and 67.13 and 49.48 and 79.37 and 79.77 and 55.4 and 81.03 and 99.97 | 100 | 108.19 and 101.3 and 133.05 and 77.44 and 61.88 and 97.99 and 123.49 and 81.45 and 115.12 and 117.74 | 100 | 125.36 and 108.14 and 139.95 and 80.65 and 62.33 and 102.82 and 127.03 and 91.37 and 119.07 and 128.51 | 100 | 137.71 and 107.49 and 162.36 and 100.14 and 70.25 and 118.23 and 133.41 and 87.57 and 140.74 and 152.32 | 0 | 0 | 0 | 0 | 0 | Overall survival of MV-4-11 (AML)-tumor bearing mice ([2]; day 28 post treatment start): 0; Overall survival of MV-4-11 (AML)-tumor bearing mice ([2]; day 30 post treatment start): 0; Overall survival of MV-4-11 (AML)-tumor bearing mice ([2]; day 32 post treatment start): 0; Overall survival of MV-4-11 (AML)-tumor bearing mice ([2]; day 34 post treatment start): 0; Overall survival of MV-4-11 (AML)-tumor bearing mice ([2]; day 37 post treatment start): 0; Overall survival of MV-4-11 (AML)-tumor bearing mice ([2]; day 39 post treatment start): 0; Overall survival of MV-4-11 (AML)-tumor bearing mice ([2]; day 41 post treatment start): 0; Overall survival of MV-4-11 (AML)-tumor bearing mice ([2]; day 44 post treatment start): 0; Overall survival of MV-4-11 (AML)-tumor bearing mice ([2]; day 46 post treatment start): 0; Overall survival of MV-4-11 (AML)-tumor bearing mice ([2]; day 48 post treatment start): 0; Overall survival of MV-4-11 (AML)-tumor bearing mice ([2]; day 51 post treatment start): 0; Overall survival of MV-4-11 (AML)-tumor bearing mice ([2]; day 53 post treatment start): 0
CC1(C)CCC(CN2CCN(c3ccc(C(=O)NS(=O)(=O)c4ccc(NCC5CCOCC5)c([N+](=O)[O-])c4)c(Oc4cnc5[nH]ccc5c4)c3)CC2)=C(c2ccc(Cl)cc2)C1 [venetoclax] | 100 | 100 | 33.13 and 28.19 and 34.15 and 35.82 and 29.42 and 37.09 and 44.34 and 37.28 and 33.74 and 41.97 | 100 | 32.39 and 37.39 and 43.94 and 50.14 and 32.53 and 44.14 and 52.92 and 48.8 and 41.66 and 49.99 | 100 | 41.04 and 57.44 and 59.24 and 62.99 and 49.55 and 52.42 and 59.83 and 53.52 and 48.45 and 66.98 | 100 | 47.19 and 72.26 and 75.92 and 72.38 and 72.25 and 70.02 and 85.2 and 60.52 and 70.23 and 97.04 | 100 | 63.44 and 101.62 and 98.93 and 111.48 and 113.46 and 108.85 and 111.46 and 76.94 and 80.71 and 124.01 | 100 | 66 and 108.03 and 100.41 and 123.76 and 112.88 and 118.57 and 116.35 and 89.12 and 87.16 and 125.05 | 0 | 74.19 and 130.91 and 105.55 and 136.78 and 132.34 and 126.42 and 134.13 and 95.37 and 110.48 and 139.48 | 0 | 0 | 0 | 0 | 0 | Overall survival of MV-4-11 (AML)-tumor bearing mice ([2]; day 28 post treatment start): 0; Overall survival of MV-4-11 (AML)-tumor bearing mice ([2]; day 30 post treatment start): 0; Overall survival of MV-4-11 (AML)-tumor bearing mice ([2]; day 32 post treatment start): 0; Overall survival of MV-4-11 (AML)-tumor bearing mice ([2]; day 34 post treatment start): 0; Overall survival of MV-4-11 (AML)-tumor bearing mice ([2]; day 37 post treatment start): 0; Overall survival of MV-4-11 (AML)-tumor bearing mice ([2]; day 39 post treatment start): 0; Overall survival of MV-4-11 (AML)-tumor bearing mice ([2]; day 41 post treatment start): 0; Overall survival of MV-4-11 (AML)-tumor bearing mice ([2]; day 44 post treatment start): 0; Overall survival of MV-4-11 (AML)-tumor bearing mice ([2]; day 46 post treatment start): 0; Overall survival of MV-4-11 (AML)-tumor bearing mice ([2]; day 48 post treatment start): 0; Overall survival of MV-4-11 (AML)-tumor bearing mice ([2]; day 51 post treatment start): 0; Overall survival of MV-4-11 (AML)-tumor bearing mice ([2]; day 53 post treatment start): 0; Antitumor efficacy, single agent ([1]; 100 mg kg^−1 orally, daily): neither the Bcl-2 inhibitor venetoclax nor cytarabine showed appreciable single-agent efficacy; anti-tumor efficacy in THP-1 (AML)-tumor bearing mice, individual measurements ([1]; Venetoclax, day 1 post treatment start, animals #5001-#5010): 36.27 and 38.57 and 29.6 and 32.89 and 34.28 and 28.35 and 32.76 and 34.15 and 38.81 and 36.79; anti-tumor efficacy in THP-1 (AML)-tumor bearing mice, individual measurements ([1]; Venetoclax, day 3 post treatment start, animals #5001-#5010): 46.08 and 62.31 and 36.23 and 49.99 and 71.57 and 33.25 and 37.51 and 51.73 and 48.97 and 53.06; anti-tumor efficacy in THP-1 (AML)-tumor bearing mice, individual measurements ([1]; Venetoclax, day 6 post treatment start, animals #5001-#5010): 58.2 and 76.5 and 34.06 and 66.44 and 87.06 and 33.28 and 39.03 and 72.1 and 63 and 57.59; anti-tumor efficacy in THP-1 (AML)-tumor bearing mice, individual measurements ([1]; Venetoclax, day 8 post treatment start, animals #5001-#5010): 70.38 and 85.8 and 36.3 and 78.87 and 103.9 and 36.38 and 41.14 and 85.31 and 91.47 and 80.8; anti-tumor efficacy in THP-1 (AML)-tumor bearing mice, individual measurements ([1]; Venetoclax, day 10 post treatment start, animals #5001-#5010): 100.62 and 113 and 44.66 and 100.81 and 143.73 and 36.12 and 44.28 and 122.17 and 124.4 and 110.66; anti-tumor efficacy in THP-1 (AML)-tumor bearing mice, individual measurements ([1]; Venetoclax, day 13 post treatment start, animals #5001-#5010): 129.99 and 188.46 and 53.9 and 147.24 and 211.83 and 41.12 and 60.34 and 168.23 and 177.94 and 148.93
